The data set is described as follows: Hemolysis assay. The note with it: sheep; 2% (v/v) erythrocyte suspension, 0.05-1 mg/mL, 37 °C 30 min; read-out: hemolysis rate. Format: cell-based. On the procedure: The hemolytic activity was evaluated using a modified reference method. Briefly, sheep erythrocytes were isolated by centrifugation at 1000× g for 5 min following washing with physiological saline. The washing procedure was repeated until the supernatant became colorless, and the erythrocyte pellet was collected. A 2% (v/v) erythrocyte suspension was prepared in physiological saline. Aliquots (1 mL) of the suspension were incubated with peptide solutions (KW, WQIWYK, […]) at concentrations of 0.05, 0.1, 0.5, and 1 mg/mL. Experimental controls included 0.1% Triton X-100 (positive control) and sterile PBS (negative control). Following incubation at 37 °C for 30 min, samples were centrifuged at 1000× g for 5 min. Hemoglobin release was quantified by measuring the absorbance of 200 μL supernatant at 425 nm using a microplate reader. The hemolysis percentage was calculated as follows:Hemolysis (%) = (As − AN)/(AP − AN) × 100 where As, AN, and AP represent the absorbance values of the sample, negative control, and positive control, respectively.

Residues, ends and D or L forms follow the SMILES beside them. No end group written: not given here.

On to `NCCCC[C@H](N)C(=O)N[C@@H](Cc1c[nH]c2ccccc12)C(=O)O` [KW] (H-Lys-Trp-OH; N-terminus and C-terminus assumed), for which the hemolysis at 30 min is less than 5%.

Take WQIWYK [WQIWYK]: the hemolysis at 30 min was less than 5%.

The values are drawn from publication PMC11990805, “Investigation of Anticancer Peptides Derived from Arca Species Using In Silico Analysis” (Molecules, 2025).
